For 7 molecules, EC50 results are on record in paper PMC7127469 (European Journal of Medicinal Chemistry, 2010).

SMILES strings stand for the structures.

Holding throughout (assay type): cell-based
For test [1], the system named is herpes simplex virus-1(KOS). Put plainly: microbe, parasite or virus in culture. As to conditions: Human alphaherpesvirus 1, HEL, virus d, HEL cells.
Test [2] has as its system Vesicular stomatitis virus. The test can be described thus: microbe, parasite or virus in culture. As to conditions: HEL.
The test system of a further test is vaccinia virus. Put plainly: microbe, parasite or virus in culture. As to conditions: Orthopoxvirus vaccinia, HEL.
The test system of test [3] is herpes simplex virus-2 (G). Put plainly: microbe, parasite or virus in culture. The note with it: Human alphaherpesvirus 2, HEL, virus e, HEL cells.
The test system of another test is influenza A H1N1 subtype. The test can be described thus: Antiviral assay, inhibition of virus-induced cytopathic effect, MDCK cells. In general terms: Cytopathic effects are the visible damage that an infection or toxin causes in cultured cells.
A further test relates to influenza A H3N2 subtype. The description is as above.
The test system of the next test is feline herpes virus. The test can be described thus: organism not typed. The note with it: CRFK, virus o, CRFK cells.
The subject of the next test is influenza B. Put plainly: Antiviral assay, inhibition of virus-induced cytopathic effect, MDCK cells.
The next test has as its system reovirus-1. The test can be described thus: organism not typed. The note with it: Vero, virus j, reovirus-1, Vero cells.
For another test, the system named is coxsackie virus B4. The test can be described thus: microbe, parasite or virus in culture. The note with it: Enterovirus B, B4, HeLa, coxsackie virus B4, HeLa cells.
For a further test, the system named is para-influenza-3 virus. The test can be described thus: organism not typed. The note with it: Vero, virus i, Vero cells.
For the next test, the system named is coxsakie virus B4. Put plainly: organism not typed. The note with it: Vero.
For a further test, the system named is sindbis virus. The test can be described thus: microbe, parasite or virus in culture. As to conditions: Vero, virus k, Vero cells.
A further test relates to punta toro virus. Put plainly: microbe, parasite or virus in culture. As to conditions: Vero, virus m, Vero cells.
The subject of test [4] is Vesicular stomatitis virus. Put plainly: microbe, parasite or virus in culture. As to conditions: HeLa.
The mark [5] stands for this setting: virus p, influenza A H1N1 subtype, MDCK cells.
Where [6] appears, read: virus q, influenza A H3N2 subtype, MDCK cells.

On to `O=c1[nH]c(=O)n([C@H]2C[C@H](O)[C@@H](CO)O2)cc1/C=C/Br` [Brivudine], for which the EC50 (commonly the concentration at which the effect is half-maximal) is 0.08 µM in test [1], more than 250 µM in [2], 2 µM with vaccinia virus and 50 µM in test [3].
For the molecule `NC12CC3CC(CC(C3)C1)C2` [Amantidin], the EC50 was determined as 45 µM in the test on influenza A H1N1 subtype (setting [5]) and 4 µM in the test on influenza A H3N2 subtype (setting [6]).
As to `Nc1nc(O)c2ncn(COC(CO)CO)c2n1` [Ganciclovir], the EC50 in test [1] is 0.03 µM; in test [2] it was more than 100 µM; with feline herpes virus, 2.6 µM; in the test on vaccinia virus, more than 100 µM; in test [3], 0.03 µM.
For `CC(N)C12CC3CC(CC(C3)C1)C2` (centres unmarked) [Rimantidin], the EC50 was determined as 20 µM with influenza A H1N1 subtype (setting [5]) and 0.8 µM in the test with influenza A H3N2 subtype (setting [6]).
For the molecule `CCC(CC)O[C@@H]1C=C(C(=O)O)C[C@H](N)[C@H]1NC(C)=O` [Oseltamivir-carboxylate], the EC50 in the test on influenza B is 4 µM; with influenza A H1N1 subtype (Influenza A virus, H1N1, MDCK) it was 0.07 µM; in the test with influenza A H3N2 subtype (Influenza A virus, H3N2, MDCK), 1.7 µM.
`Nc1ncnc2c1ncn2C[C@H](O)CO` [(S)-DHPA]: the EC50 in the test with reovirus-1, in the test on coxsackie virus B4, in the test on para-influenza-3 virus, in the test on coxsakie virus B4, with sindbis virus and in the test with punta toro virus was more than 250 µM in each case.
As for `NC(=O)c1ncn([C@@H]2O[C@H](CO)[C@@H](O)[C@H]2O)n1` [Ribavirin], the EC50 was 10 µM in [1]; 250 µM in the test with reovirus-1; 30 µM in the test on coxsackie virus B4; more than 250 µM in [2]; 95 µM with para-influenza-3 virus; 85 µM with vaccinia virus. Moreover, the EC50 was 50 µM in test [3]; 9 µM in the test on influenza B; more than 250 µM in the test on coxsakie virus B4; 7 µM with influenza A H1N1 subtype (Influenza A virus, H1N1, MDCK); 9 µM in the test on influenza A H3N2 subtype (Influenza A virus, H3N2, MDCK); 50 µM with punta toro virus. In [4], this molecule came in with an EC50 of 10 µM.
